Laboratory results taken from PubChem BioAssay (NCI).
≈ marks a conversion by molar mass, not a printed value.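 Cultured in 96-well plates, cells were exposed to test compound for 48 hours across five concentrations. Here, GI50 denotes the concentration required for 50% inhibition of growth. TGI: concentration producing complete growth inhibition.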

Columns and labels:
Assay in all cases: NCI tumour cell line growth inhibition, 48 h
DLD-1 colon = tested on: DLD-1 colon
DMS 273 small cell lung = tested on: DMS 273 small cell lung
LXFL 529 NSCLC = tested on: LXFL 529 NSCLC
M19-MEL melanoma = tested on: M19-MEL melanoma
SNB-78 CNS = tested on: SNB-78 CNS
DMS 114 small cell lung = tested on: DMS 114 small cell lung
RXF-631 renal = tested on: RXF-631 renal
MDA-N = tested on: MDA-N
HOP-18 NSCLC = tested on: HOP-18 NSCLC
P388 leukemia = tested on: P388 leukemia
SN12K1 renal = tested on: SN12K1 renal

SMILES	TGI (DLD-1 colon)	TGI (DMS 273 small cell lung)	TGI (LXFL 529 NSCLC)	TGI (M19-MEL melanoma)	TGI (SNB-78 CNS)	TGI (DMS 114 small cell lung)	TGI (RXF-631 renal)	TGI (MDA-N)	TGI (HOP-18 NSCLC)	also measured
COc1cc2c3cc1Oc1c(OC)c(OC)cc4c1[C@@H](Cc1ccc(O)c(c1)Oc1ccc(cc1)C[C@@H]3N(C)CC2)N(C)CC4	56.3 µM	34 µM	24.8 µM	26.2 µM	> 100 µM					
Cc1cc(Cl)ccc1N=C1NC(=O)C(CC(=O)Nc2cccc(C)c2C)S1 (stereo not drawn)	> 100 µM	81 µM		> 100 µM	79.7 µM	66.6 µM	84.3 µM			
Cn1c2c(c3ccccc3c1=O)C(=O)c1ccccc1-2								> 100 µM		
CN(CCCN1C(=O)c2cccc3cc([N+](=O)[O-])cc(c23)C1=O)CCN(C)CCCN1C(=O)c2cccc3cc([N+](=O)[O-])cc(c23)C1=O		> 39.3 µM	> 39.3 µM	> 39.3 µM	> 39.3 µM	> 39.3 µM	> 39.3 µM		> 39.3 µM	
COc1cc(C2c3cc4c(cc3[C@@H](Nc3ccc([N+](=O)[O-])cc3)C3COC(=O)[C@H]23)OCO4)cc(OC)c1O (stereo partly drawn)	19.2 µM	5.65 µM	78.3 µM	22.8 µM	> 71.5 µM	6.26 µM	11.4 µM	> 100 µM	77.2 µM	GI50 (DLD-1 colon): 3.15 µM; GI50 (DMS 114 small cell lung): 0.614 µM; GI50 (DMS 273 small cell lung): 0.274 µM; GI50 (M19-MEL melanoma): 0.942 µM; TGI (P388 leukemia): > 100 µM; TGI (SN12K1 renal): 2.88 µM
CCOC(=O)C(=O)Nc1c(C)cccc1C(C)(C)C		> 100 µM	> 100 µM	> 100 µM	> 100 µM	> 100 µM	> 100 µM		> 100 µM	
C=C(C)C1CCC2=CC(CC3(C)OC3C3=CC(C(=O)OC)=C(C1)O3)OC2=O (stereo not drawn)								> 100 µM		
COc1c(-c2ccc3c(c2)OCO3)oc2cc(O)cc(O)c2c1=O								> 100 µM		
O=C(NNc1ccccc1)c1ccc(Cl)c(Cl)c1								> 100 µM		
CC(C)N1C(C)[C@@H](c2ccccc2)O[P@@]1(=O)CC1=CCCCC1 (stereo partly drawn)	> 100 µM		> 100 µM	> 100 µM		> 100 µM			> 100 µM	
Cc1ccc(NC(=S)C#N)c(C)c1								> 100 µM		
O=[N+]([O-])c1cccc(S(=O)(=O)N/N=C/c2cc(I)cc([N+](=O)[O-])c2O)c1	> 100 µM	52.9 µM	48.3 µM	> 100 µM	66.4 µM	53.8 µM			78.6 µM	
CC(=O)c1ccc2c3c1[C@H]1O[C@H]1c1cccc(c1-3)[C@@H]1O[C@H]21								5.86 µM		
Nn1c(-c2cccc(Cl)c2)nc2ccccc2c1=O	> 100 µM	> 100 µM	> 100 µM		> 100 µM	> 100 µM	> 100 µM		> 100 µM	
O=[N+]([O-])c1ccc(C2SCc3nc4ccccc4n32)cc1 (stereo not drawn)	> 100 µM	> 100 µM	> 100 µM	> 100 µM	> 100 µM	> 100 µM	> 100 µM		> 100 µM	
CC(=O)[CH-]C(=O)c1ccccc1.CC(=O)[CH-]C(=O)c1ccccc1.CC[C@H](/C=C/C(C)[C@H]1CCC2[C@@H]3CC=C4C[C@@H]([O-])CC[C@]4(C)C3CC[C@@]21C)C(C)C.CC[C@H](/C=C/C(C)[C@H]1CCC2[C@@H]3CC=C4C[C@@H]([O-])CC[C@]4(C)C3CC[C@@]21C)C(C)C.Cl.[Ti+4] (stereo partly drawn)	> 25 µM	> 25 µM	> 25 µM	> 25 µM					> 25 µM	GI50 (DLD-1 colon): > 25 µM; GI50 (DMS 273 small cell lung): > 25 µM; GI50 (HOP-18 NSCLC): > 25 µM; GI50 (LXFL 529 NSCLC): > 25 µM; GI50 (M19-MEL melanoma): > 25 µM
CCC[CH2][Sn]([CH2]CCC)([O]C(=O)c1cc(F)ccc1F)[O]C(=O)c1cc(F)ccc1F	2.16 µM	2.45 µM	0.491 µM	1.8 µM	1.86 µM	1.41 µM	0.363 µM		3.67 µM	GI50 (DLD-1 colon): 0.915 µM; GI50 (DMS 114 small cell lung): 0.372 µM; GI50 (DMS 273 small cell lung): 1.2 µM; GI50 (HOP-18 NSCLC): 2.21 µM; GI50 (LXFL 529 NSCLC): 0.176 µM; GI50 (M19-MEL melanoma): 0.537 µM; GI50 (RXF-631 renal): 0.154 µM; GI50 (SNB-78 CNS): 0.419 µM
CCOC(=O)/C(C#N)=C\Sc1ccccc1	45.5 µM	41.9 µM	57.3 µM	63.8 µM	> 100 µM	33.9 µM	53.2 µM		> 100 µM	
COc1ccc(/C=C\c2cc(OC)c(OC)c(OC)c2)cc1OC(=O)CC(N)C(=O)O (stereo not drawn)	> 100 µM	0.00462 µM		> 100 µM	> 100 µM	0.00318 µM		0.000474 µM	> 100 µM	GI50 (HOP-18 NSCLC): > 100 µM
O=C(NCCCl)Nc1ccccc1								> 100 µM		

SMILES	TGI (DLD-1 colon)	TGI (DMS 273 small cell lung)	TGI (LXFL 529 NSCLC)	TGI (M19-MEL melanoma)	TGI (SNB-78 CNS)	TGI (DMS 114 small cell lung)	TGI (RXF-631 renal)	TGI (MDA-N)	TGI (HOP-18 NSCLC)	also measured
O=C1C(Cl)=C(Cl)C(=O)N1c1ccc(F)cc1	41 µM	> 62 µM	32.1 µM	41.8 µM	71.3 µM	39.4 µM	> 72.6 µM	48.7 µM	43.1 µM	
O=C1NC2(CCCCC2)C2CCCCC=C12 (stereo not drawn)	> 100 µM	> 100 µM	> 100 µM	> 100 µM	> 100 µM	> 100 µM			> 100 µM	
NC(Cc1cccnn1)C(=O)O (stereo not drawn)								> 100 µM		
COc1cc([C@@H]2OC(=O)C3C2C(=O)O[C@H]3c2ccc(O)c(OC)c2)ccc1O (stereo partly drawn)	> 100 µM	> 100 µM	> 100 µM	> 100 µM	> 100 µM	> 100 µM	> 100 µM		> 100 µM	
O=C(COC(=O)c1cccc2c(=O)c3ccccc3[nH]c12)Nc1ccc(Cl)cc1	> 100 µM		> 100 µM	> 100 µM	> 100 µM	> 100 µM			> 100 µM	
C=C1C(=O)O[C@@H]2CC(CO)=C([C@@H](C)CCCO)[C@@H](OC(=O)/C(C)=C\C)[C@H]12								> 67.3 µM		
O=C1CC(Cc2n[nH]c3c2CCCC3)CC(=O)N1								> 100 µM		
CNCC(=O)NC(CO)C(=O)NC(CO)C(=O)NC1C(C(N)=O)OC(n2ccc(N)nc2=O)C(O)C1O (stereo not drawn)								> 50 µg/mL		GI50 (MDA-N): 12.4 µg/mL (≈ 23.3 µM)
COc1cccc2c(SCC(=O)Nc3ccccc3-c3ccccc3NC(=O)CSc3c4ccccc4nc4c(OC)cccc34)c3ccccc3nc12	> 100 µM	> 100 µM			> 100 µM	> 100 µM	> 100 µM			
CSc1ccc(NC(=O)Nc2cc(C)ccn2)cc1								> 100 µM		
COC(=O)C12C34C=CC5(CCC6(C=CC1(CC3)O6)C52C(=O)OC)O4 (stereo not drawn)		> 100 µM	> 100 µM	> 100 µM	> 100 µM		> 100 µM		> 100 µM	
NC(=O)C(=O)C1C(=O)N(c2ccccc2)N=C1N (stereo not drawn)	> 100 µM	> 100 µM	> 100 µM		> 100 µM					
COC(=O)c1ccc(C(=O)OC)c2nc3cc(Cl)ccc3nc12	> 100 µM	> 100 µM	> 100 µM	> 100 µM		> 100 µM	> 100 µM		> 100 µM	
C[C@]12CC(C=O)C(=O)C(O)=C1CC[C@@H]1C2CC[C@@]2(C)C1CC[C@]2(C)O (stereo partly drawn)	34.5 µM	46.8 µM	31.6 µM	44.8 µM	35.8 µM	33.4 µM	72.7 µM			
CN(C)N=Nc1cccc(C(N)=O)c1	> 100 µM	> 100 µM	> 100 µM	> 100 µM	> 100 µM	> 100 µM			> 100 µM	
CN(C)C(=S)/N=c1\ssc(=S)n1Cc1ccco1	> 100 µM	> 42.2 µM	> 100 µM	> 100 µM	> 100 µM	> 74 µM	> 100 µM		> 100 µM	
Cc1ccc(C)c(NC(=O)C(=O)C2C(=O)N(c3ccccc3)N=C2N)c1 (stereo not drawn)	> 100 µM	> 100 µM	> 100 µM	> 100 µM	> 100 µM		> 100 µM		> 100 µM	
CCCCCCCCC(C)CCCCCCCCC(=O)OCC(COP(=O)([O-])OCC[N+](C)(C)C)OC(=O)CCCCCCCCC(C)CCCCCCCC (stereo not drawn)	> 100 µM	> 100 µM	> 100 µM	> 100 µM	> 100 µM	> 100 µM	> 100 µM		> 100 µM	
COC(=O)C(=O)C(C(C)=O)C(=O)NCc1ccccc1 (stereo not drawn)	> 100 µM	> 100 µM	> 100 µM	> 100 µM	> 100 µM	> 100 µM			> 100 µM	
